From ChEMBL document CHEMBL1201862, “PubChem BioAssay data set” (2004)
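Where inhibition never reached the appropriate level, the endpoint shown equals the highest concentration tested. Otherwise, values were interpolated linearly from a five-concentration, 48-hour dose response in 96-well plates. GI50: concentration for 50% inhibition of growth.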 Active and inactive are the calls of the source. Cut-off read from the data, not from the text of the source: active = GI50 up to about 1.1 µM and inactive = higher.

Assays:
Test in all cases: NCI anticancer screen, dose series, 48 h
HCT-15 = system: HCT-15
NCI-H460 = system: NCI-H460
PC-3 = system: PC-3
RXF 393 = system: RXF 393
MCF7 = system: MCF7
XF498 = system: XF498
UO-31 = system: UO-31
K562 = system: K562
Hs-578T = system: Hs-578T
KM12 = system: KM12
SW-620 = system: SW-620
786-0 = system: 786-0
OVCAR-3 = system: OVCAR-3
UACC-257 = system: UACC-257
DU-145 = system: DU-145
MDA-MB-435 = system: MDA-MB-435
T47D = system: T47D
IGROV-1 = system: IGROV-1
SF-295 = system: SF-295
NCI-H522 = system: NCI-H522

Row | SMILES | GI50 (HCT-15) [µM] | GI50 (NCI-H460) | GI50 (PC-3) | GI50 (RXF 393) | GI50 (MCF7) | GI50 (XF498) | GI50 (UO-31) | GI50 (K562) | GI50 (Hs-578T) | GI50 (KM12) | GI50 (SW-620) | GI50 (786-0) | GI50 (OVCAR-3) | GI50 (UACC-257) | GI50 (DU-145) | GI50 (MDA-MB-435) | GI50 (T47D) | GI50 (IGROV-1) | GI50 (SF-295) | GI50 (NCI-H522)
1 | Cc1c(CNc2ccc(Cl)c(C(=O)NC(CC(=O)O)C(=O)O)c2)ccc2nc(N)nc(N)c12 (stereo not given) | 0.0265 | 0.0352 µM (active) | 178 µM (inactive) | > 39.4 µM (inactive) | 0.499 µM (active) | > 100 µM (inactive) | 0.665 µM (active) | < 0.12 µM (active) | 506 µM (inactive) | 0.106 µM (active) | < 0.0175 µM (active) | < 0.01 µM (active) | 6.46 µM (inactive) | 5.55 µM (inactive) | 0.0588 µM (active) | < 0.01 µM (active) | > 100 µM (inactive) | 0.0715 µM (active) | 0.126 µM (active) | 3.83 µM (inactive)
2 | CC(C)S(=O)(=O)ON1C(=O)c2ccc(N(C)C)cc2C1=O | 13.6 | 19.9 µM (inactive) | > 10 µM (inactive) | 13.2 µM (inactive) | 5.93 µM (inactive) | 17.7 µM (inactive) | 18.2 µM (inactive) | 3.41 µM (inactive) | > 10 µM (inactive) | 21.4 µM (inactive) | 11.4 µM (inactive) | 4.66 µM (inactive) | 8.91 µM (inactive) | 20.1 µM (inactive) | > 10 µM (inactive) | 2.04 µM (inactive) | 9.4 µM (inactive) | 20.8 µM (inactive) | 30.9 µM (inactive) | 1.52 µM (inactive)
3 | CC(=O)NC(CCCCN(Cc1ccccc1)C(=O)N(CCCl)N=O)C(=O)NCc1ccccc1 (stereo not given) | > 60.8 | 2.22 µM (inactive) | > 35.5 µM (inactive) | 14.7 µM (inactive) | 16.3 µM (inactive) | > 34.4 µM (inactive) | 34.4 µM (inactive) | 36.6 µM (inactive) | 22.2 µM (inactive) | 38.5 µM (inactive) | 18.5 µM (inactive) | 0.895 µM (active) | 60.8 µM (inactive) | 24.3 µM (inactive) | 25.7 µM (inactive) | 35.1 µM (inactive) | 14.5 µM (inactive) | 39.7 µM (inactive) | 7.21 µM (inactive) | 39 µM (inactive)
